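Grown in 96-well plates, cells were treated for 48 hours with each compound at five concentrations. Insufficient inhibition: endpoint recorded as highest concentration tested. GI50 marks 50% less growth.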 Active and inactive are the calls of the source. No stated cut-off is given here; in the data, active = GI50 up to about 1.1 µM and inactive = higher.
Experiments:
Experiment in all cases: NCI tumour cell line growth inhibition, 48 h
[1] = system: 786-0
[2] = system: SR
[3] = system: HCC 2998
[4] = system: NCI-H23
[5] = system: OVCAR-5
[6] = system: SNB-75
[7] = system: RXF 393
[8] = system: OVCAR-8
[9] = system: OVCAR-3
[10] = system: HOP-92
[11] = system: CAKI-1
[12] = system: HCT-15
[13] = system: NCI-H226
[14] = system: SK-MEL-5
[15] = system: RPMI-8226
[16] = system: SF-268
[17] = system: SK-MEL-28
[18] = system: MOLT-4
[19] = system: Malme-3M
[20] = system: BT-549
[21] = system: HL-60
[22] = system: LOX IMVI
[23] = system: SK-OV-3
[24] = system: SW-620
[25] = system: UACC-257
[26] = system: CCRF-CEM
[27] = system: SN12C
[28] = system: M14
[29] = system: U-251
[30] = system: HCT-116
[31] = system: SF-295
[32] = system: Hs-578T
[33] = system: COLO 205
[34] = system: NCI-H460
[35] = system: NCI/ADR-RES
[36] = system: UACC-62
[37] = system: IGROV-1
[38] = system: SK-MEL-2
[39] = system: HOP-62
[40] = system: K562
[41] = system: MCF7
[42] = system: ACHN
[43] = system: EKVX
[44] = system: HT-29
[45] = system: OVCAR-4
[46] = system: SF-539
[47] = system: TK-10
[48] = system: A549
[49] = system: MDA-N
[50] = system: SNB-19
[51] = system: PC-3
[52] = system: KM12
[53] = system: DU-145
[54] = system: T47D
[55] = system: MDA-MB-231
[56] = system: UO-31
[57] = system: MDA-MB-435
[58] = system: NCI-H522
[59] = system: A498

In the case of `COc1ccc(/C=C2\CCc3cc(OC)c(OC)cc3C2=O)cc1`, the GI50 [1] is reported as > 10 µM (inactive), the GI50 [2] is reported as > 10 µM (inactive) and the GI50 [3] is reported as > 10 µM (inactive). The GI50 [4] was > 10 µM (inactive), the GI50 [5] was > 10 µM (inactive) and the GI50 [6] was 5.12 µM (inactive). For the same molecule, the GI50 [7] was > 10 µM (inactive), the GI50 [8] was > 10 µM (inactive) and the GI50 [9] was > 10 µM (inactive). For the same molecule, the GI50 [10] was > 10 µM (inactive), the GI50 [11] was > 10 µM (inactive) and the GI50 [12] was greater than 10 µM. For the same molecule, the GI50 [13] was > 10 µM (inactive), the GI50 [14] was > 10 µM (inactive) and the GI50 [15] was > 10 µM (inactive). The GI50 [16] was > 10 µM (inactive), the GI50 [17] was > 10 µM (inactive) and the GI50 [18] was > 10 µM (inactive). The GI50 [19] was > 10 µM (inactive), the GI50 [20] was > 10 µM (inactive) and the GI50 [21] was 9.25 µM (inactive). For the same molecule, the GI50 [22] was > 10 µM (inactive), the GI50 [23] was > 10 µM (inactive) and the GI50 [24] was > 10 µM (inactive). For the same molecule, the GI50 [25] was > 10 µM (inactive), the GI50 [26] was > 10 µM (inactive) and the GI50 [27] was > 10 µM (inactive). The GI50 [28] was > 10 µM (inactive), the GI50 [29] was > 10 µM (inactive) and the GI50 [30] was > 10 µM (inactive). The GI50 [31] was > 10 µM (inactive), the GI50 [32] was > 10 µM (inactive) and the GI50 [33] was > 10 µM (inactive). The GI50 [34] was > 10 µM (inactive), the GI50 [35] was > 10 µM (inactive) and the GI50 [36] was > 10 µM (inactive). For the same molecule, the GI50 [37] was > 10 µM (inactive), the GI50 [38] was > 10 µM (inactive) and the GI50 [39] was > 10 µM (inactive). The GI50 [40] was > 10 µM (inactive), the GI50 [41] was > 10 µM (inactive) and the GI50 [42] was > 10 µM (inactive). The GI50 [43] was > 10 µM (inactive), the GI50 [44] was > 10 µM (inactive) and the GI50 [45] was > 10 µM (inactive). For the same molecule, the GI50 [46] was > 10 µM (inactive), the GI50 [47] was > 10 µM (inactive) and the GI50 [48] was > 10 µM (inactive). The GI50 [49] was > 10 µM (inactive), the GI50 [50] was > 10 µM (inactive) and the GI50 [51] was > 10 µM (inactive). For the same molecule, the GI50 [52] was > 10 µM (inactive), the GI50 [53] was > 10 µM (inactive) and the GI50 [54] was > 10 µM (inactive). The GI50 [55] was > 10 µM (inactive), the GI50 [56] was > 10 µM (inactive) and the GI50 [57] was > 10 µM (inactive).
In the case of `C1CSCCSCSCCS1`, the GI50 [3] is reported as > 100 µM (inactive), the GI50 [4] is reported as > 100 µM (inactive) and the GI50 [5] is reported as > 100 µM (inactive). The GI50 [6] was 48.3 µM (inactive), the GI50 [7] was > 100 µM (inactive) and the GI50 [8] was > 100 µM (inactive). For the same molecule, the GI50 [9] was > 100 µM (inactive), the GI50 [10] was > 100 µM (inactive) and the GI50 [11] was > 100 µM (inactive). For the same molecule, the GI50 [12] was greater than 100 µM, the GI50 [13] was > 100 µM (inactive) and the GI50 [14] was > 100 µM (inactive). For the same molecule, the GI50 [58] was > 100 µM (inactive), the GI50 [16] was > 100 µM (inactive) and the GI50 [17] was > 100 µM (inactive). The GI50 [20] was > 100 µM (inactive), the GI50 [22] was > 100 µM (inactive) and the GI50 [23] was > 100 µM (inactive). For the same molecule, the GI50 [24] was > 100 µM (inactive), the GI50 [25] was > 100 µM (inactive) and the GI50 [27] was > 100 µM (inactive). For the same molecule, the GI50 [59] was > 100 µM (inactive), the GI50 [28] was > 100 µM (inactive) and the GI50 [29] was > 100 µM (inactive). For the same molecule, the GI50 [30] was > 100 µM (inactive), the GI50 [31] was > 100 µM (inactive) and the GI50 [32] was > 100 µM (inactive). For the same molecule, the GI50 [33] was > 100 µM (inactive), the GI50 [34] was > 100 µM (inactive) and the GI50 [35] was > 100 µM (inactive). For the same molecule, the GI50 [36] was > 100 µM (inactive), the GI50 [37] was > 100 µM (inactive) and the GI50 [38] was > 100 µM (inactive). For the same molecule, the GI50 [39] was > 100 µM (inactive), the GI50 [41] was > 100 µM (inactive) and the GI50 [42] was > 100 µM (inactive). The GI50 [43] was > 100 µM (inactive), the GI50 [44] was > 100 µM (inactive) and the GI50 [45] was > 100 µM (inactive). The GI50 [46] was > 100 µM (inactive), the GI50 [47] was > 100 µM (inactive) and the GI50 [48] was > 100 µM (inactive). For the same molecule, the GI50 [49] was > 100 µM (inactive), the GI50 [50] was > 100 µM (inactive) and the GI50 [51] was > 100 µM (inactive). For the same molecule, the GI50 [52] was > 100 µM (inactive), the GI50 [53] was > 100 µM (inactive) and the GI50 [54] was > 100 µM (inactive). The GI50 [55] was > 100 µM (inactive), the GI50 [56] was > 100 µM (inactive) and the GI50 [57] was > 100 µM (inactive).
For `CC(CNC(=O)c1ccccc1)(CNC(=O)c1ccccc1)[N+](=O)[O-]`, the GI50 [1] was > 100 µM (inactive), the GI50 [2] was > 100 µM (inactive) and the GI50 [4] was > 100 µM (inactive). The GI50 [5] was > 100 µM (inactive), the GI50 [6] was 51.3 µM (inactive) and the GI50 [7] was > 100 µM (inactive). The GI50 [8] was > 100 µM (inactive), the GI50 [10] was > 100 µM (inactive) and the GI50 [11] was > 100 µM (inactive). The GI50 [12] was greater than 100 µM, the GI50 [13] was > 100 µM (inactive) and the GI50 [14] was > 100 µM (inactive). For the same molecule, the GI50 [15] was > 100 µM (inactive), the GI50 [58] was 67.1 µM (inactive) and the GI50 [16] was > 100 µM (inactive). The GI50 [18] was > 100 µM (inactive), the GI50 [19] was > 100 µM (inactive) and the GI50 [20] was > 100 µM (inactive). The GI50 [21] was > 100 µM (inactive), the GI50 [23] was > 100 µM (inactive) and the GI50 [24] was > 100 µM (inactive). The GI50 [25] was > 100 µM (inactive), the GI50 [27] was > 100 µM (inactive) and the GI50 [28] was > 100 µM (inactive). For the same molecule, the GI50 [29] was > 100 µM (inactive), the GI50 [30] was > 100 µM (inactive) and the GI50 [31] was > 100 µM (inactive). For the same molecule, the GI50 [32] was > 100 µM (inactive), the GI50 [33] was > 100 µM (inactive) and the GI50 [34] was > 100 µM (inactive). For the same molecule, the GI50 [35] was > 100 µM (inactive), the GI50 [36] was > 100 µM (inactive) and the GI50 [37] was > 100 µM (inactive). The GI50 [38] was > 100 µM (inactive), the GI50 [40] was > 100 µM (inactive) and the GI50 [41] was > 100 µM (inactive). The GI50 [42] was > 100 µM (inactive), the GI50 [43] was > 100 µM (inactive) and the GI50 [44] was > 100 µM (inactive). For the same molecule, the GI50 [46] was > 100 µM (inactive), the GI50 [47] was > 100 µM (inactive) and the GI50 [48] was > 100 µM (inactive). The GI50 [49] was > 100 µM (inactive), the GI50 [50] was 7.05 µM (inactive) and the GI50 [51] was > 100 µM (inactive). For the same molecule, the GI50 [52] was > 100 µM (inactive), the GI50 [53] was > 100 µM (inactive) and the GI50 [54] was > 100 µM (inactive). For the same molecule, the GI50 [55] was > 100 µM (inactive), the GI50 [56] was 23.8 µM (inactive) and the GI50 [57] was > 100 µM (inactive).

— ChEMBL document CHEMBL1201862, “PubChem BioAssay data set” (2004)
